Data published in patent US10004809B2, “Precise delivery of therapeutic agents to cell mitochondria for anti-cancer therapy” (UNIVERSITY OF GEORGIA RESEARCH FOUNDATION, INC., priority 2013, dated 2018).

Legend:
[1] = tested on: PC3 cells; experiment: Intracellular lactate determination; type: cell-based, Human; details: 6 h
Description: Cytosolic metabolism of glucose to pyruvate occurs before its entry into mitochondria for oxidative phosphorylation. However, if not metabolized through oxidative phosphorylation as found in cancer, pyruvate gets converted by lactate dehydrogenase through glycolysis to lactate. Glycolysis in the absence of oxidative phosphorylation in cancer causes rise in lactate concentration. To test the ability of MITO-DCA to switch glucose metabolism from glycolysis to oxidative phosphorylation in cancer cells, intracellular lactate levels in glycolytic PC3 cells were measured and compared the value with those observed in less glycolytic LNCaP and normal MSC cells (FIG. 5A). To understand the importance of mitochondria targeting ligand and to explore the importance of a Tris platform to increase number of DCA molecule per targeting ligand, the parent drug Na-DCA and TPP-DCA were used as controls. Treatment of PC3 cells with 50 μM of MITO-DCA for 6 h reduced the intracellular lactate levels by 58±5%. […] Pronounced lactate concentration differences were observed between […] glycolytic PC3 and healthy MSC cells (FIG. 5A). […] None of the DCA compounds has any effect on the lactate levels in MSC cells (FIG. 5A).
PC3, LNCaP, and MSC cells were seeded at a density of 1×10^6 cells/mL on each well of a 12 well plate and allowed to grow overnight at 37° C. under 5% CO2. Cells were treated with 150 μM Na-DCA, 150 μM TPP-DCA, and 50 μM MITO-DCA for 6 h at 37° C. After 6 h, the media was removed and the cells were homogenized. The lysate was added to the enzyme and substrate working reagent mixture and incubated for 30 min. Lactate concentration was measured using Bio-Tek Synergy HT microplate reader at 450 nm and comparing to a standard curve.

[2] = tested on: mouse bone marrow derived dendritic cells (BMDCs); experiment: Cytokine secretion of BMDCs activated with supernatants of treated PC3 cells (ELISA); type: cell-based; details: for IL-12 secretion from BMDCs: BMDCs 24 h
Description: Cancer cells recruit several pathways to evade elimination by the immune system (Kim et al., Immunology 121:1-14, 2007). Several mechanisms by which tumor cells escape immunity include upregulation of inhibitory molecules, production of immunosuppressive cytokines, and downregulation of costimulatory molecules (Rabinovich et al., Annu. Rev. Immunol. 25:267-296, 2007). Dendritic cells (DCs), the major players for the initiation of a specific anti-tumor T-cell response, are potential target to tumor-mediated immunosuppression. (Gabrilovich et al., Nat. Med. 2:1096-1103, 1996; Radmayr et al., Int. J. Cancer 63:627-632, 1995; Orsini et al., Cancer Res. 63:4497-4506, 2003.) Lactic acid secretion in highly proliferative glycolytic tumor has the ability to induce alteration in antigen phenotype and functional activity of DCs, which contributes to the suppression of local immunity (Gottfried et al. 2006). Tumor derived lactic acid inhibit the differentiation of monocytes to DCs, impair DC activation and antigen expression and suppress the proliferation, cytokine production and cytotoxic activity of T cells (Fischer et al., Blood 109:3812-3819, 2007). After observing significant and very selective reduction in lactate levels in PCa cells by MITO-DCA, the impact of the reduced lactate producing PC3 cell supernatants on DCs was investigated. Cancer cell supernatants were generated by treating PC3 cells with MITO-DCA (50 μM), Na-DCA (150 μM), and TPP-DCA (150 μM) for 24 h. First, investigated was the immune responses from the PC3 supernatants upon treatment with different DCA compounds by determining pro-inflammatory and anti-inflammatory cytokines interleukin (IL)-2, IL-4, IL-6, IL-10, IL-12, tumor necrosis factor (TNF)-α, and interferon-gamma (IFN-γ) using enzyme-linked immunosorbent assay (ELISA) (FIG. 6A) (Marrache et al., Integr. Biol. 5:215-223, 2013). […] The levels of all these three cytokines were higher for MITO-DCA treated cells compared to those, which were treated with TPP-DCA or Na-DCA. When DCs are activated appropriately, they take up tumor antigens and apoptotic bodies, migrate to the T-cell-rich area of the lymph nodes, initiate a series of actions for the selection of antigen-specific T cells, and the release of the DC cytokines such as IFN-γ and IL-12. The PC3 supernatants containing the tumor antigens were added to mouse bone marrow derived dendritic cells (BMDCs) and incubated at 37° C. (Marrache et al., 2013). […]
BMDCs were isolated from 6-8 weeks old C57BL/6 mice. […] The cells were counted, resuspended and transferred to petri dishes at the final concentration of 1.5×10^6 cells/mL. […] DC purity was tested by incubating BMDCs with LPS (100 ng/mL) and measured the surface expression of CD11c. […]

[3] = tested on: PC3 cells; experiment: CELLTITER-GLO luminescent intracellular ATP quantification; type: cell-based, Human; details: for Increase in intracellular ATP levels: 3 h; for ATP level and cell growth at high concentration: PC3 cells, 6 h
Method: A decrease in cancer cell lactate levels is expected to be associated with an increase in ATP production. Intracellular ATP levels in PC3, LNCaP, and MSC cells treated with MITO-DCA (20 μM), TPP-DCA (60 μM), and Na-DCA (60 μM) were measured.
PC3 or MSC cells were plated at a density of 10,000 cells per well in 96-well plates compatible with the luminometer used in 100 μL media. […] Control wells containing medium without cells were prepared to obtain a value for background luminescence. Plates were then equilibrated at room temperature for ˜30 min. A volume of CELLTITER-GLO™ reagent equal to the volume of cell culture medium present in each well was added, this mixtures were well mixed for 2 min using a shaker to induce cell lysis. The plates were allowed to incubate at room temperature for 10 min to stabilize luminescent signal. Luminescent was recorded using a plate reader. ATP quantification was carried out from a standard curve using ATP disodium salt hydrate.

[4] = supernatant of PC3 cells treated with 50 μM for 24 h

SMILES	Reduction of intracellular lactate levels ([1]; 50 μM) [%]	IL-10 production from BMDCs [2, 4]	TNF-α secretion from BMDCs [2, 4]	IL-12 secretion from BMDCs [2, 4]	Increase in intracellular ATP levels ([3]; 20 μM) [%]	ATP level and cell growth at high concentration ([3]; 50 μM)	Reduction of intracellular lactate levels ([1]; 150 μM) [%]	IL-12 secretion from BMDCs ([2]; supernatant of PC3 cells treated with 150 μM for 24 h)	Increase in intracellular ATP levels ([3]; 60 μM)	ATP level and cell growth at high concentration ([3]; 150 μM)
O=C(CCCCC[P+](c1ccccc1)(c1ccccc1)c1ccccc1)NC(COC(=O)C(Cl)Cl)(COC(=O)C(Cl)Cl)COC(=O)C(Cl)Cl.[Br-] [MITO-DCA]	58±5	reducing IL-10 production	highest level	significant increased secretion of IL-12	~44	ATP reduction and cell growth inhibition	–	–	–	–
O=C(OCCC[P+](c1ccccc1)(c1ccccc1)c1ccccc1)C(Cl)Cl.[Br-] [TPP-DCA]	–	–	–	–	–	–	30±2	lesser compared to MITO-DCA	did not show any significant increase	ATP reduction and cell growth inhibition
